Our source for the IC50 and inhibition values is patent US10940139B2, “Compounds that interact with the Ras superfamily for the treatment of cancers, inflammatory diseases, rasopathies, and fibrotic disease” (Shy Therapeutics LLC, priority 2017, dated 2021).

The subject of one assay is MIA-PACA2 pancreatic cancer cell lines. Briefly: Cell proliferation assay (CellTiter 96 AQueous One). The assay is classed as cell-based. To be noted: Homo sapiens, MIA PaCa-2; MIA-PACA2, same assay as the % inhibition (standard conditions).
What is called IC50 is the concentration that gives 50% inhibition. Higher therefore signals weaker potency. The compound `Oc1nc(-c2ccccn2)nc2c(-c3ccccc3)csc12` [drawing 1581] yielded an IC50 of 100 to 500 nM.
Turning to `Oc1nc(-c2ccccn2)nc2c(-c3ccccc3Cl)csc12` [drawing 1582], the IC50 was in the range of 100 to 500 nM.
In turn, `N#Cc1ncn(-c2nc(-c3ccccn3)nc3sc(-c4ccccc4)cc23)n1` [drawing 1595] gave an IC50 of 501 to 1000 nM.
The compound `CC1CN(c2ccccc2)CCN1C(=O)c1csc2c(O)nc(-c3ccccn3)nc12` (centres unmarked) [drawing 1654] registered a 50% inhibitory concentration (IC50) of 501 to 1000 nM.
`O=c1nc(-c2ccccn2)[nH]c2ccsc12` [drawing 1494] showed an IC50 above 1000 nM.

Staying with this assay, now noted: Homo sapiens, MIA PaCa-2; at 30 μM, MIA-PACA2.
By inhibition is commonly meant how much of the control response was suppressed. High values mean a strong effect, low ones a weak effect. With `O=C(c1csc2c(O)nc(-c3ccccn3)nc12)N1CCOC(CN2CCOCC2)C1` (centres unmarked) [drawing 1698], the inhibition at 30 µM fell in the range of 51 to 75%.
With `CCn1nc(C)cc1-c1csc2c(O)nc(-c3ccccn3)nc12` [drawing 1779], the inhibition at 30 µM was 76 to 100%.
With `O=C(c1csc2c(O)nc(-c3ccccn3)nc12)N1CCc2ccccc2CC1` [drawing 1579], the inhibition at 30 µM lay within 76 to 100%.
`COC(=O)c1csc2nc(-c3ccccn3)nc(N)c12` [drawing 1771] showed an inhibition at 30 µM of 76 to 100%.
Regarding `Cc1sc2nc(-c3ccccn3)nc(NCCc3nccn3C)c2c1-c1ccccc1` [drawing 1597], the inhibition at 30 µM lay in the range of 76 to 100%.
Still for that read-out and setting: to `O=C(Nc1nc(-c2ccccn2)cs1)c1cccc(F)c1` [drawing 1474] belongs 76 to 100%.
The compound `O=C(Cc1cccc(F)c1)Nc1nc(-c2ccccn2)cs1` [drawing 1484] showed an inhibition at 30 µM of 76 to 100%.
Same read-out and setting: to `Oc1nc(-c2ccccn2)nc2c(-c3ccccc3)csc12` [drawing 1581] belongs 76 to 100%; to `O=C(c1csc2c(O)nc(-c3ccccn3)nc12)N1CCNC(c2ccc(O)cc2)C1` (centres unmarked) [drawing 1701], 76 to 100%.
As for `CCCCSc1nc(-c2cccs2)c(C(=O)C(F)(F)F)cc1C#N` [drawing 1523], the inhibition at 30 µM fell in the range of 76 to 100%.
Compound `Cc1ccc(CC(=O)Nc2nnc(-c3ccccn3)[nH]2)cn1` [drawing 1419] showed an inhibition at 30 µM of 51 to 75%.
The same measure, in the same setting: to `Nc1nc(O)c2scc(C(=O)N3CCc4ccccc4CC3)c2n1` [drawing 1561] belongs 1 to 25%; to `Oc1nc(-c2ccccn2)nc2c(-c3cncc(F)c3)csc12` [drawing 1786], 76 to 100%.
Take `Cc1sc2c(N)nc(-c3ccccn3)nc2c1Br` [drawing 1769]: the inhibition at 30 µM lay within 76 to 100%.
Compound `Oc1nc(-c2ccccn2)nc2c(-c3ccc(F)cc3F)csc12` [drawing 1747] yielded an inhibition at 30 µM of 76 to 100%.
`CC(C)(C)c1noc(CCC(=O)Nc2nnc(-c3ccccn3)[nH]2)n1` [drawing 1412] displayed an inhibition at 30 µM of 25 to 50%.
`CC(C(=O)Nc1nc(-c2ccccn2)nc2sccc12)c1ccc(C#N)cc1` (centres unmarked) [drawing 1691] had an inhibition at 30 µM of 76 to 100%.
As to `COc1ccc(C2CN(C(=O)c3csc4c(O)nc(-c5ccccn5)nc34)CCN2)cc1` (centres unmarked) [drawing 1667], the inhibition at 30 µM lay within 25 to 50%.
The compound `Cc1ccc(O)c(CN(C)Cc2nccn2Cc2ccccc2)n1` [drawing 1521] yielded an inhibition at 30 µM of 76 to 100%.
The same measure, in the same setting: to `O=C(Nc1nnc(-c2ccccn2)[nH]1)c1ccc(NC(=O)c2ccccn2)cc1` [drawing 1440] belongs 25 to 50%; to `CN(CC(=O)Nc1nnc(-c2ccccn2)[nH]1)S(=O)(=O)c1ccccc1` [drawing 1467], 1 to 25%.
For the compound `O=C(Nc1nnc(-c2ccccn2)[nH]1)c1ccc(Oc2ccccc2)nc1` [drawing 1410], the inhibition at 30 µM lay within 51 to 75%.
In turn, `N#Cc1ccc(N2CCN(C(=O)c3csc4c(O)nc(-c5ccccn5)nc34)CC2)cc1` [drawing 1650] came in with an inhibition at 30 µM of 25 to 50%.
Take `CC(O)CNc1nc(-c2ccccn2)nc2scc(-c3ccccc3)c12` (centres unmarked) [drawing 1513]: the inhibition at 30 µM is 76 to 100%.
`COc1ccc(C2CN(C(=O)c3csc4c(O)nc(-c5ccccn5)nc34)CCO2)cc1` (centres unmarked) [drawing 1661] showed an inhibition at 30 µM of 76 to 100%.
As to `N#Cc1cccc(CCNC(=O)c2csc3nc(-c4ccccn4)nc(N4CCOCC4)c23)c1` [drawing 1680], the inhibition at 30 µM was in the range of 76 to 100%.
Consider `COc1cnc(-c2ccccn2)nc1O` [drawing 1791], for which the inhibition at 30 µM lay within 76 to 100%.
`O=C(Nc1nnc(-c2ccccn2)[nH]1)C1CCCN(c2cnccn2)C1` (centres unmarked) [drawing 1439] yielded an inhibition at 30 µM of 76 to 100%.
The same measure, in the same setting: next, `Nc1nc(-c2ccccn2)nc2c(-c3ccccc3Cl)csc12` [drawing 1711]: 76 to 100%; `Nc1nc(O)c2scc(-c3ccccc3)c2n1` [drawing 1580]: 25 to 50%; `O=c1nc(-c2ccccn2)[nH]c2scc(-c3cccs3)c12` [drawing 1490]: 76 to 100%.
Consider `CNC(=O)CN1CCN(c2nc(-c3ccccn3)nc3scc(-c4ccccc4)c23)CC1` [drawing 1607], for which the inhibition at 30 µM lay within 1 to 25%.
`O=C(c1csc2c(O)nc(-c3ccccn3)nc12)N1CCN(c2ccc(O)c(Cl)c2)CC1` [drawing 1696] came in with an inhibition at 30 µM of 76 to 100%.
Turning to `CS(=O)(=O)N1CCCc2cc(C(=O)Nc3nnc(-c4ccccn4)[nH]3)ccc21` [drawing 1469], the inhibition at 30 µM was 76 to 100%.
On the same count and under the same terms, to `Oc1nc(-c2ccccn2)nc2c(-c3ccccc3F)csc12` [drawing 1744] belongs 76 to 100%.
The compound `CC1CCc2sc(C(=O)Nc3nnc(-c4ccccn4)[nH]3)cc2C1` (centres unmarked) [drawing 1443] displayed an inhibition at 30 µM of 76 to 100%.
Consider `Oc1nc(-c2ccccn2)nc2c(-c3ccccc3Cl)csc12` [drawing 1582], for which the inhibition at 30 µM was in the range of 76 to 100%.
For `O=S1(=O)CCC(Nc2nc(-c3ccccn3)nc3scc(-c4ccccc4)c23)C1` (centres unmarked) [drawing 1615], the inhibition at 30 µM was 76 to 100%.
As for `CCN(CC)S(=O)(=O)c1ccc(NCCOC)c(C(=O)NCCSCc2ccc(C)cc2)c1` [drawing 1538], the inhibition at 30 µM is 76 to 100%.
`Cc1cc2c(=O)nc(-c3cc(OCC(F)F)ccn3)[nH]c2s1` [drawing 1500] yielded an inhibition at 30 µM of 76 to 100%.
Regarding `COCCCCNC(=O)c1csc2nc(-c3ccccn3)nc(N3CCS(=O)(=O)CC3)c12` [drawing 1702], the inhibition at 30 µM was in the range of 1 to 25%.
On to `COc1ccc(CN(CC[S+]([O-])c2cc(Cl)ccc2Cl)C2CC2)cc1` (centres unmarked) [drawing 1530], for which the inhibition at 30 µM was in the range of 51 to 75%.
In turn, `Oc1nc(-c2ccccn2)nc2c(-c3cc(C(F)(F)F)ccc3F)csc12` [drawing 1787] had an inhibition at 30 µM of 76 to 100%.
`COCC1CCN(C(=O)c2csc3c(O)nc(-c4ccccn4)nc23)CC1` [drawing 1564] had an inhibition at 30 µM of 76 to 100%.
Same read-out and setting: next, `c1ccc(-c2csc3nc(-c4ccccn4)nc(N4CCN(CCN5CCCC5)CC4)c23)cc1` [drawing 1616]: 76 to 100%; `COc1ccccc1C1CN(C(=O)c2csc3c(O)nc(-c4ccccn4)nc23)CCO1` (centres unmarked) [drawing 1660]: 76 to 100%; `Nc1nc(-c2ccccn2)nc2ccsc12` [drawing 1710]: 1 to 25%.
With `COCCCn1ccc(Nc2cc(C)nc(-c3ccccn3)n2)n1` [drawing 1512], the inhibition at 30 µM is 25 to 50%.
With `O=C(c1csc2c(O)nc(-c3ccccn3)nc12)N1CCC(N2CCCC2=O)CC1` [drawing 1568], the inhibition at 30 µM fell in the range of 1 to 25%.
On to `N#Cc1ncn(-c2nc(-c3ccccn3)nc3sc(-c4ccccc4)cc23)n1` [drawing 1595], for which the inhibition at 30 µM was in the range of 76 to 100%.
In the case of `CN(CCc1ccncc1)C(=O)c1csc2c(O)nc(-c3ccccn3)nc12` [drawing 1577], the inhibition at 30 µM was 25 to 50%.
`COC(=O)c1cccc(CN2CCC(CSc3ccccc3)C2)c1C#N` (centres unmarked) [drawing 1517] had an inhibition at 30 µM of 76 to 100%.
`CS(=O)(=O)c1cccc(C(=O)N2CCCc3c(O)nc(-c4ccccn4)nc32)c1` [drawing 1549] yielded an inhibition at 30 µM of 1 to 25%.
For the compound `COc1ccc(COCC(=O)N2CCCc3c(O)nc(-c4ccccn4)nc32)cc1` [drawing 1544], the inhibition at 30 µM lay in the range of 76 to 100%.
In turn, `c1ccc(-c2csc3nc(-c4ccccn4)nc(NN4CCOCC4)c23)cc1` [drawing 1623] showed an inhibition at 30 µM of 76 to 100%.
Compound `CC(Oc1ccc(C(=O)Nc2nnc(-c3ccccn3)[nH]2)cn1)c1ccccc1` (centres unmarked) [drawing 1425] yielded an inhibition at 30 µM of 76 to 100%.
In the case of `Nc1nc(-c2ccccn2)nc2scc(C(=O)O)c12` [drawing 1782], the inhibition at 30 µM lay in the range of 1 to 25%.
`O=C(c1csc2c(O)nc(-c3ccccn3)nc12)N1CCN(Cc2ccccc2)CC1` [drawing 1655] came in with an inhibition at 30 µM of 76 to 100%.
Turning to `O=C(Nc1nnc(-c2ccccn2)[nH]1)C1Cc2cc(Cl)ccc2O1` (centres unmarked) [drawing 1459], the inhibition at 30 µM was in the range of 76 to 100%.
Regarding `Cc1cccc(C)c1OCCOC(=O)c1ccccc1SCCOc1c(C)cccc1C` [drawing 1541], the inhibition at 30 µM lay within 51 to 75%.
`O=C(COc1ccc2c(c1)CCC2)Nc1nnc(-c2ccccn2)[nH]1` [drawing 1438]: the inhibition at 30 µM lay within 1 to 25%.
Consider `O=C1CN(c2nc(-c3ccccn3)nc3scc(-c4ccccc4)c23)CCN1CCO` [drawing 1594], for which the inhibition at 30 µM was 51 to 75%.
`CCCNC(=O)CN1CCN(c2nc(-c3ccccn3)nc3sc(-c4ccccc4)cc23)CC1` [drawing 1598] displayed an inhibition at 30 µM of 76 to 100%.
`O=C(NCCc1cccnc1)c1cc2nc(-c3ccccn3)nc(O)c2s1` [drawing 1719] registered an inhibition at 30 µM of 76 to 100%.
On to `O=C(c1csc2c(O)nc(-c3ccccn3)nc12)N1CCNC(c2ccccc2Cl)C1` (centres unmarked) [drawing 1699], for which the inhibition at 30 µM fell in the range of 76 to 100%.
For `COc1ccc(NC(=O)CCc2c(C)nc(-c3ccccn3)nc2O)cn1` [drawing 1501], the inhibition at 30 µM was 76 to 100%.
As to `O=C(Nc1nnc(-c2ccccn2)[nH]1)C1Cc2ccccc2O1` (centres unmarked) [drawing 1422], the inhibition at 30 µM was in the range of 1 to 25%.
On the same count and under the same terms, next, `COc1ccc(COCC(=O)Nc2ccnc(-c3ccccn3)n2)cn1` [drawing 1585]: 1 to 25%; `O=C(c1csc2c(O)nc(-c3ccccn3)nc12)N1CCC(c2ccncc2)C1` (centres unmarked) [drawing 1715]: 76 to 100%; `CC1CN(c2ccccc2)CCN1C(=O)c1csc2c(O)nc(-c3ccccn3)nc12` (centres unmarked) [drawing 1654]: 76 to 100%.
Turning to `Cc1ccccc1C1CN(C(=O)c2csc3c(O)nc(-c4ccccn4)nc23)CCN1` (centres unmarked) [drawing 1668], the inhibition at 30 µM fell in the range of 76 to 100%.
Take `c1ccc(-c2nc(NCC3CCCO3)c3ccsc3n2)nc1` (centres unmarked) [drawing 1591]: the inhibition at 30 µM was in the range of 76 to 100%.
For the compound `O=c1nc(-c2ccccn2)[nH]c2ccsc12` [drawing 1494], the inhibition at 30 µM lay within 1 to 25%.
As for `O=C(Nc1nc(-c2ccccn2)cs1)c1cccnc1` [drawing 1483], the inhibition at 30 µM fell in the range of 76 to 100%.
Take `O=C(c1csc2c(O)nc(-c3ccccn3)nc12)N1CCOC(Cc2ccccc2)C1` (centres unmarked) [drawing 1664]: the inhibition at 30 µM fell in the range of 76 to 100%.
